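Dose response: 5 concentrations. Exposure: 48 h. Format: 96-well plates. Endpoint: linear interpolation; highest concentration if not reached. Here, GI50 denotes the concentration required for 50% inhibition of growth.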 The source made the active and inactive calls. Rule as the data show it: active = GI50 up to about 1.1 µM and inactive = higher.
Columns and labels:
Assay in all cases: NCI anticancer screen, dose series, 48 h
[1] = system: 786-0
[2] = system: A498
[3] = system: A549
[4] = system: CCRF-CEM
[5] = system: DU-145
[6] = system: HCT-116
[7] = system: MOLT-4
[8] = system: NCI-H226
[9] = system: OVCAR-3
[10] = system: PC-3
[11] = system: SF-295
[12] = system: SK-OV-3
[13] = system: SNB-19
[14] = system: SNB-75
[15] = system: SW-620
[16] = system: TK-10
[17] = system: UACC-62
[18] = system: KM12
[19] = system: SF-539

Measured: GI50

Nn1nnc2ccccc21
inactive: [1] > 100 µM | [2] > 100 µM | [3] > 100 µM | [4] > 100 µM | [5] > 100 µM | [6] > 100 µM | [7] > 100 µM | [8] > 100 µM | [9] > 100 µM | [10] > 100 µM | [11] > 100 µM | [12] > 100 µM | [13] > 100 µM | [14] > 100 µM | [15] > 100 µM | [16] > 100 µM | [17] > 100 µM

Cc1ccccc1N/C(=C(/C(Cl)=C(Cl)Cl)[N+](=O)[O-])n1nnc2ccccc21
inactive: [1] 34 µM | [2] 19.4 µM | [3] 41.7 µM | [4] 29.6 µM | [5] 22.4 µM | [6] 42.4 µM | [18] 15.9 µM | [7] > 100 µM | [8] 17.6 µM | [9] 16.9 µM | [10] 22.1 µM | [11] 14.9 µM | [19] 17.6 µM | [12] 15.3 µM | [13] 19.6 µM | [14] 16.6 µM | [15] 15.9 µM | [17] 22.7 µM

O=C(Nc1ccc(Cl)cc1)c1cc2c(cc1Cl)SC(NNCCO)=NS2(=O)=O
inactive: [1] > 100 µM | [2] 17.6 µM | [4] > 100 µM | [5] > 100 µM | [6] > 100 µM | [18] > 100 µM | [7] > 100 µM | [8] > 100 µM | [10] > 100 µM | [11] > 100 µM | [19] > 100 µM | [12] > 100 µM | [13] > 100 µM | [14] > 100 µM | [15] > 100 µM | [16] > 100 µM | [17] > 100 µM

COc1cc2c(cc1OC)C(N)CC2=O (configuration not stated)
inactive: [1] > 100 µM | [2] > 100 µM | [3] > 100 µM | [4] > 100 µM | [5] > 100 µM | [6] > 100 µM | [18] > 100 µM | [7] > 100 µM | [8] 9.06 µM | [9] > 100 µM | [10] > 100 µM | [11] > 100 µM | [19] > 100 µM | [12] > 100 µM | [13] > 100 µM | [14] > 100 µM | [15] > 100 µM | [16] > 100 µM | [17] > 100 µM

Cc1cc(C)c(C#N)c(SC(=S)NC(=O)c2ccc(Cl)cc2)n1
inactive: [1] > 100 µM | [2] > 100 µM | [3] > 100 µM | [4] > 100 µM | [5] > 100 µM | [6] > 100 µM | [18] > 100 µM | [9] > 100 µM | [10] > 100 µM | [11] > 100 µM | [12] > 100 µM | [13] > 100 µM | [14] > 100 µM | [15] > 100 µM | [16] > 100 µM | [17] > 100 µM

O=C(Cc1ccc(O)c(O)c1)NCc1c[nH]c2ccccc12
inactive: [1] 33.7 µM | [2] > 100 µM | [3] 64.7 µM | [4] 6.95 µM | [5] 29.1 µM | [6] 32.4 µM | [18] 71.4 µM | [7] 20.4 µM | [9] 42.3 µM | [10] 47.1 µM | [11] 93.3 µM | [19] 43.8 µM | [12] > 100 µM | [13] 94 µM | [14] > 100 µM | [15] 92 µM | [16] 16.4 µM

C=C(C[N+](C)(C)C)N/N=C/c1oc(-c2ccc(OC)c(OC)c2)c(-c2ccc(OC)c(OC)c2)c1[N+](=O)[O-]
inactive: [1] 17.6 µM | [2] 28.6 µM | [3] 38.5 µM | [4] 13.6 µM | [5] 34.1 µM | [6] 17 µM | [18] 17.1 µM | [7] 22.4 µM | [8] 27.3 µM | [9] 24.8 µM | [11] 17.5 µM | [19] 16.7 µM | [12] 30.3 µM | [13] 34.4 µM | [14] 19.4 µM | [15] 18.7 µM | [16] 22.4 µM | [17] > 10 µM

N#CN1CC[C@@H]2CC3(CCC2C1)OCCO3 (some centres not stated)
inactive: [1] > 100 µM | [2] > 100 µM | [3] > 100 µM | [4] > 100 µM | [6] > 100 µM | [18] > 100 µM | [7] > 100 µM | [8] > 100 µM | [9] > 100 µM | [11] > 100 µM | [19] > 100 µM | [12] > 100 µM | [13] > 100 µM | [14] > 100 µM | [15] > 100 µM | [16] > 100 µM | [17] > 100 µM

O=[N+]([O-])c1c(Br)cc(Br)c2c1Nc1c(ccc(Cl)c1Cl)S2
inactive: [1] 9.18 µM | [2] 21.1 µM | [3] 20.2 µM | [4] 2.39 µM | [5] 14.1 µM | [6] 6.37 µM | [18] 5.89 µM | [7] 3.06 µM | [8] 5.96 µM | [9] 4.8 µM | [10] 17.7 µM | [11] 20.7 µM | [19] 22.2 µM | [12] 19.6 µM | [13] 18.3 µM | [14] 36.5 µM | [15] 7.14 µM | [16] 22.5 µM | [17] 16 µM

O=[N+]([O-])c1ccc2nnnn2c1
inactive: [1] 22.2 µM | [3] 45.3 µM | [5] 37.2 µM | [6] 4.18 µM | [18] 23.1 µM | [7] 2.62 µM | [8] 12.3 µM | [9] 13.5 µM | [10] > 100 µM | [11] 11.3 µM | [19] 14.9 µM | [12] 42.6 µM | [13] 93.8 µM | [14] 85.3 µM | [15] 12.7 µM | [16] 48.3 µM | [17] 13.4 µM

C[N+]12c3ccccc3O[B-]1(c1ccccc1)Oc1ccccc12 (configuration not stated)
inactive: [1] 35.9 µM | [2] > 100 µM | [3] 39.4 µM | [4] 11.9 µM | [6] 38.5 µM | [18] 25.2 µM | [7] 5.74 µM | [8] 32.8 µM | [9] 31 µM | [11] 41 µM | [19] 26.9 µM | [12] 33.7 µM | [13] 66.1 µM | [14] 19.9 µM | [15] 28.1 µM | [16] 23.5 µM | [17] 37.4 µM
